In PMC9090415, “Discovery of small molecule inhibitors of Plasmodium falciparum apicoplast DNA polymerase” (Journal of Enzyme Inhibition and Medicinal Chemistry, 2022):

Biological target: P. falciparum apicoplast DNA polymerase (Pf-apPOL) (Plasmodium falciparum, UniProt Q8ILY1)
Assay: Fluorescence-based high-throughput DNA polymerase assay (molecular beacon), primary screen and dose-response
Type: biochemical
Protocol: The HT assay employs a molecular beacon, a stem-loop DNA template with a Cy3 dye and the Black Hole Quencher on the 3′ and 5′ ends of the DNA, respectively. Pf-apPOL concentration is based on a calculated absorptivity of ε280 = 56750 M^−1 cm^−1. Reactions were carried out at 25 °C, using Corning 3575 […] (well-volume, 20 µL). Assays testing for compound inhibition composed of reaction buffer (pH 7.9 in 50 mM potassium acetate, 20 mM Tris-acetate and 10 mM magnesium acetate), Pf-apPOL (20 nM), DNA substrate (20 nM), dNTPs (6 µM), and compound (10 µM in DMSO). The DNA and nucleotide substrates (dNTPs) were at concentrations of 20 nM and 6 µM, respectively, in the assay. Pf-apPOL was incubated in the reaction buffer with dNTPs and the compound of interest (10 µM, in the assay) at 25 °C for 10 min. The DNA substrate was then added and the reaction was allowed to proceed for 90 min at 25 °C.
Each assay plate contained 16 negative controls (no Pf-apPOL, DMSO present) and 16 positive controls (Pf-apPOL present, no DMSO). The fluorescence of each well was determined using a BioTek Synergy Neo fluorescence plate reader using excitation and emission wavelengths of 555 and 570 nm, respectively.
In the above, Min is the average of fluorescence emission of the negative controls (substrate only), Max the average fluorescence emission from the positive controls (enzyme + substrate), and Test the emission from the assays in the presence of compounds (enzyme + compound + substrates). […] […] The IC50 of each compound was determined using Equation (2): (2) IC50= Vmax/(1+ (I/IC50)^n)
In the above, n measures cooperativity, with n > 1 indicating synergistic binding of more than a single molecule of the compound.
To identify apPOL inhibitors we utilised our previously developed high-throughput DNA polymerase assay. The HT assay is based on a molecular beacon DNA template that forms a stem-loop with a Cy3 dye and the Black Hole Quencher on the 3′ and 5′ ends of the DNA, respectively. DNA polymerase activity extends an annealed primer through the stem region, displacing the fluorophore from the quencher, thereby increasing its fluorescence (Figure 1(A)). The assay accurately recapitulates the kinetic behaviour of apPOL, as measured through more conventional low-throughput gel-based assays. The Z′ factor for the assay described here was 0.9 across all plates (data not shown).
Figure 1. High-throughput screening. (A) The fluorescent-based DNA polymerase assay used to screen the compound libraries. The DNA template strand is a hairpin loop with a primer annealed to the loop. The 3’ end of the primer is 11 bases away from the 6 bp duplex. Strand displacement activity of the DNA polymerase separates the Cy3 dye from the Black hole quencher leading to an increase in fluorescent signal. (B) The high-throughput assay workflow. The DNA polymerase is incubated with […] compound for 10 min prior to addition of the hairpin substrate. The reaction is quenched at 3 different time points and the fluorescent signal is measured and % inhibition is determined using the provided equation.

[1] = primary screen value of the 186 hits; unit not given; 90 min, 10 µM

Chain of P. falciparum apicoplast DNA polymerase (Pf-apPOL) (Q8ILY1 entry or part of it): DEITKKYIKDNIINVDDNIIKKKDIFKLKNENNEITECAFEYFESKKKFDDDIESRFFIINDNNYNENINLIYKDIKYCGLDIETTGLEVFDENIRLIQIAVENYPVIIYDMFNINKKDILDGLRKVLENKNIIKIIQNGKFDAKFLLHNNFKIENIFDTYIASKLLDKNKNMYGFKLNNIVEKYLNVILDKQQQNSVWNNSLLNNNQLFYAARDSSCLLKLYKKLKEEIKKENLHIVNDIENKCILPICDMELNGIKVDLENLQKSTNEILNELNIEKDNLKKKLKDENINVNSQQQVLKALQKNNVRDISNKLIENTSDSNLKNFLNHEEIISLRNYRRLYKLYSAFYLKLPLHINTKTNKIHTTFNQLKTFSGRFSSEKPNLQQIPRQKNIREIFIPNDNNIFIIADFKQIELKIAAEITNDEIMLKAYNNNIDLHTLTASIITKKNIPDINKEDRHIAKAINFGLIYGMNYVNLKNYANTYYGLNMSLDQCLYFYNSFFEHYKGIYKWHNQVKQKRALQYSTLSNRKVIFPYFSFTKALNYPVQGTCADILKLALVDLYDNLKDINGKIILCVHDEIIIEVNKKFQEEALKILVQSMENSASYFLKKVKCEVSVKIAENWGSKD

With `CCCCSc1nnc2c(n1)OC(c1ccc([N+](=O)[O-])o1)Nc1ccccc1-2` (centres unmarked) [KU0065811] the “% inhibition Apo pol 10'” value (DRC-1; 10'; concentration 2.5) was 24.76%, the “% inhibition Apo pol 10'” value (DRC-1; 10'; concentration 5) was 28.8752% and the “% inhibition Apo pol 10'” value (DRC-1; 10'; concentration 10) was 64.0477%. The “% inhibition Apo pol 10'” value (DRC-1; 10'; concentration 20) was 79.0403%, the “% inhibition Apo pol 10'” value (DRC-1; 10'; concentration 40) was 87.9065% and the “% inhibition Apo pol 10'” value (DRC-1; 10'; concentration 80) was 83.2493%. The “% inhibition Apol 90'” value (DRC-1; 90'; concentration 2.5) was 16.1067%, the “% inhibition Apol 90'” value (DRC-1; 90'; concentration 5) was 15.8932% and the “% inhibition Apol 90'” value (DRC-1; 90'; concentration 10) was 47.3098%. The “% inhibition Apol 90'” value (DRC-1; 90'; concentration 20) was 63.8014%, the “% inhibition Apol 90'” value (DRC-1; 90'; concentration 40) was 80.4903% and the “% inhibition Apol 90'” value (DRC-1; 90'; concentration 80) was 83.7363%. The “% inhibition apPOL 180'” value (DRC-1; 180'; concentration 2.5) was 8.192%, the “% inhibition apPOL 180'” value (DRC-1; 180'; concentration 5) was 3.59% and the “% inhibition apPOL 180'” value (DRC-1; 180'; concentration 10) was 30.0435%. The “% inhibition apPOL 180'” value (DRC-1; 180'; concentration 20) was 48.0622%, the “% inhibition apPOL 180'” value (DRC-1; 180'; concentration 40) was 73.3106% and the “% inhibition apPOL 180'” value (DRC-1; 180'; concentration 80) was 82.0141%. For the same compound, the “% inhibition Apol 40'” value (DRC-2, 40', concentration 5 (unit not given)) was 36%, the “% inhibition Apol 40'” value (DRC-2, 40', concentration 20 (unit not given)) was 59% and the “% inhibition ApPOL 90'” value (DRC-2, 90', concentration 20 (unit not given)) was 59%. For the same compound, the “% inhibition Apo pol 5'” value (DRC-2; 5'; concentration 2.5) was 27%, the “% inhibition Apo pol 5'” value (DRC-2; 5'; concentration 5) was 36% and the “% inhibition Apo pol 5'” value (DRC-2; 5'; concentration 5 (unit not given)) was 36%. For the same compound, the “% inhibition Apo pol 5'” value (DRC-2; 5'; concentration 10) was 51%, the “% inhibition Apo pol 5'” value (DRC-2; 5'; concentration 20) was 47% and the “% inhibition Apo pol 5'” value (DRC-2; 5'; concentration 40) was 37%. The “% inhibition Apo pol 5'” value (DRC-2; 5'; concentration 80) was 13%, the “% inhibition Apol 40'” value (DRC-2; 40'; concentration 2.5) was 25% and the “% inhibition Apol 40'” value (DRC-2; 40'; concentration 5) was 36%. For the same compound, the “% inhibition Apol 40'” value (DRC-2; 40'; concentration 10) was 55%, the “% inhibition Apol 40'” value (DRC-2; 40'; concentration 20) was 59% and the “% inhibition Apol 40'” value (DRC-2; 40'; concentration 40) was 57%. The “% inhibition Apol 40'” value (DRC-2; 40'; concentration 80) was 42%, the “% inhibition ApPOL 90'” value (DRC-2; 90'; concentration 2.5) was 22% and the “% inhibition ApPOL 90'” value (DRC-2; 90'; concentration 5) was 32%. For the same compound, the “% inhibition ApPOL 90'” value (DRC-2; 90'; concentration 10) was 52%, the “% inhibition ApPOL 90'” value (DRC-2; 90'; concentration 20) was 59% and the “% inhibition ApPOL 90'” value (DRC-2; 90'; concentration 40) was 62%. For the same compound, the “% inhibition ApPOL 90'” value (DRC-2; 90'; concentration 80) was 50%, the “% inhibition apPOL 180'” value (DRC-2; 180'; concentration 2.5) was 11% and the “% inhibition apPOL 180'” value (DRC-2; 180'; concentration 5) was 19%. The “% inhibition apPOL 180'” value (DRC-2; 180'; concentration 10) was 41%, the “% inhibition apPOL 180'” value (DRC-2; 180'; concentration 20) was 53% and the “% inhibition apPOL 180'” value (DRC-2; 180'; concentration 40) was 64%. For the same compound, the “% inhibition apPOL 180'” value (DRC-2; 180'; concentration 80) was 58%, the “DNA Pol” value [1] was 52 and the “DNA Pol” value (primary screen value, head "DNA Pol", unit not given; 90 min, 10 µM) was 52.
In the case of `COc1cc(/C=C2\C(=O)N(c3ccc(C(=O)O)cc3)N=C2C(F)(F)F)ccc1OCC(C)C` [KU0069072], the “% inhibition Apo pol 10'” value (DRC-1; concentration 2.5; 10') was 27.3475%, the “% inhibition Apol 90'” value (DRC-1; concentration 2.5; 90') was 15.3217% and the “% inhibition apPOL 180'” value (DRC-1; concentration 2.5; 180') was 6.275%. For the same compound, the “% inhibition Apo pol 10'” value (DRC-1; concentration 5; 10') was 10.3149%, the “% inhibition Apol 90'” value (DRC-1; concentration 5; 90') was -0.5045% and the “% inhibition apPOL 180'” value (DRC-1; concentration 5; 180') was -5.844%. The “% inhibition Apo pol 10'” value (DRC-1; concentration 10; 10') was 46.067%, the “% inhibition Apol 90'” value (DRC-1; concentration 10; 90') was 33.8794% and the “% inhibition apPOL 180'” value (DRC-1; concentration 10; 180') was 21.4839%. For the same compound, the “% inhibition Apo pol 10'” value (DRC-1; concentration 20; 10') was 70.4954%, the “% inhibition Apol 90'” value (DRC-1; concentration 20; 90') was 63.3531% and the “% inhibition apPOL 180'” value (DRC-1; concentration 20; 180') was 50.844%. For the same compound, the “% inhibition Apo pol 10'” value (DRC-1; concentration 40; 10') was 88.0061%, the “% inhibition Apol 90'” value (DRC-1; concentration 40; 90') was 82.4517% and the “% inhibition apPOL 180'” value (DRC-1; concentration 40; 180') was 75.9132%. For the same compound, the “% inhibition Apo pol 10'” value (DRC-1; concentration 80 (unit not given); 10') was 95.6412%, the “% inhibition Apol 90'” value (DRC-1; concentration 80; 90') was 93.9861% and the “% inhibition apPOL 180'” value (DRC-1; concentration 80; 180') was 92.8608%. The “% inhibition Apo pol 5'” value (DRC-2; concentration 2.5; 5') was 4%, the “% inhibition Apol 40'” value (DRC-2; concentration 2.5; 40') was 4.27% and the “% inhibition ApPOL 90'” value (DRC-2; concentration 2.5; 90') was 2.38%. The “% inhibition apPOL 180'” value (DRC-2; concentration 2.5; 180') was 0.394%, the “% inhibition Apo pol 5'” value (DRC-2; concentration 5; 5') was -3.52% and the “% inhibition Apol 40'” value (DRC-2; concentration 5; 40') was -5%. The “% inhibition ApPOL 90'” value (DRC-2; concentration 5; 90') was -7%, the “% inhibition apPOL 180'” value (DRC-2; concentration 5; 180') was -9% and the “% inhibition Apo pol 5'” value (DRC-2; concentration 10; 5') was 24%. For the same compound, the “% inhibition Apol 40'” value (DRC-2; concentration 10; 40') was 28%, the “% inhibition ApPOL 90'” value (DRC-2; concentration 10; 90') was 25% and the “% inhibition apPOL 180'” value (DRC-2; concentration 10; 180') was 15%. The “% inhibition Apo pol 5'” value (DRC-2; concentration 20; 5') was 44%, the “% inhibition Apol 40'” value (DRC-2; concentration 20; 40') was 51% and the “% inhibition ApPOL 90'” value (DRC-2; concentration 20; 90') was 50%. For the same compound, the “% inhibition apPOL 180'” value (DRC-2; concentration 20; 180') was 40%, the “% inhibition Apo pol 5'” value (DRC-2; concentration 40; 5') was 59% and the “% inhibition Apol 40'” value (DRC-2; concentration 40; 40') was 70%. For the same compound, the “% inhibition ApPOL 90'” value (DRC-2; concentration 40; 90') was 71%, the “% inhibition apPOL 180'” value (DRC-2; concentration 40; 180') was 66% and the “% inhibition Apo pol 5'” value (DRC-2; concentration 80; 5') was 65%. The “% inhibition Apol 40'” value (DRC-2; concentration 80; 40') was 78%, the “% inhibition ApPOL 90'” value (DRC-2; concentration 80; 90') was 80% and the “% inhibition apPOL 180'” value (DRC-2; concentration 80; 180') was 82%. The “DNA Pol” value [1] was 76 and the “DNA Pol” value (primary screen value; head prints only 'DNA Pol'; 90 min, 10 µM) was 76.
